Measurements taken from patent publication US20030055106A1, “Therapeutic uses of peroxometallic compounds” (priority 1999, published 2003).

How the values were obtained:
ETs (ET-1, ET-2, ET-3) = experiment: Plasma endothelin levels after insulin (RIA); format: in vivo; conditions: rats; two minutes after insulin 1.5 μg/100 g b.w.; no bpV(phen)
Procedure: The data presented in Table III show the effect of bpV(phen) on the plasmatic levels of ETs. […] Two minutes following insulin administration (1.5 μg/100 g b.w, or vehicle), the plasma levels of ETs were determined. Insulin administration induced a strong increase of seric ET concentration (54). […] In addition, bpV(phen) decreased the insulin-stimulated levels of plasmatic ETs below control levels. […] ETs (ET-1, ET-2, ET-3) were measured by RIA (Amersham kit RPA 555) after lyophilization and extraction on C2 columns (500 mg). Results are mean ±SEM, p<0.0209, control (n=4) vs Insulin, pV (n=3).

left carotid artery = experiment: Balloon angioplasty of the left carotid artery (restenosis); format: in vivo, Male Sprague-Dawley rats
Procedure: The data presented in Table IV show the effect of the pV compound bpV(bipy) on restenosis. Male Sprague-Dawley rats (325-350 g) were anaesthetized with Rogarsetic, a mixture of ketamine hydrochloride and xylazine hydrochloride. The animals were divided into two groups of 14-31 rats that underwent balloon angioplasty of the left carotid artery, with or without treatment (108). The treated group received bpV (bipy) (10 mg/kg/i.p. b.i.d.) for 14 days, starting on the day of the angioplasty. Every animal in each group underwent balloon angioplasty of the left external carotid whereas the contra-lateral carotid served as a control for each animal. The left carotid artery balloon angioplasty was performed under aseptic conditions. The left external carotid was isolated and an arteriotomy was performed. A 2F Fogarty arterial embolectomy catheter was then inserted in the left common carotid and positioned near the aortic arch. The balloon was then inflated and retracted with a twisting motion to its insertion point. This procedure was repeated twice and the external carotid was ligated. There were no differences in the lumina (L), intima (I), media (M), the ratio of I/M and calculated value of (M−L/P) as a measure of neointimal proliferation (NIP) between normal, non-ballooned carotid artery of treated and non-treated rats, serving as controls (data not shown).

Rat aorta rings = experiment: Rat aortic ring assay (cell/microvessel migration in fibrin gel); format: cell-based
Source text: FIG. 3: Micrographs of the cell migration from aortic rings embedded in fibrin (×12).
FIG. 4: Quantification of the cell migration from aortic rings in the presence of orthovanadate (plain bars); bpV(phen) (light gray bars); and bpV(pic) (dark gray bars). The control appears as an empty bar. Means and standard errors of the means are presented.
Rat aorta rings were embedded in fibrin matrix as previously described (107). Thoracic aortas excised from adult rats were rinsed in Hank's balanced salt solution (HBSS), and cleansed of periadventitial. One-mm long aortic rings were sectioned and rinsed in culture medium. Each of the aortic rings were then embedded in fibrin gel matrix. Migration of microvessels in fibrin gel was quantified by measuring the distance from the external surface of rat aortic rings towards the migrating vessels. Measurements were performed at day 15 by digitizing morphometry with a NIH image analysis system (FIGS. 3 and 4).

HUVECs = experiment: HUVEC differentiation and organization into tubular-like structures in fibrin matrix; format: cell-based, Human; design: key to cords / tubes / Stell. struct.: †: Dead cells
Procedure: Alternatively, HUVECs cultured in a fibrin matrix can form 3-dimensional tubular-like structures in the presence of serum (103). This assay was performed in the presence of either bpV(phen), bpv(pic) or vanadate to assess the influence of each one of these compounds on HUVEC differentiation and organization (Table 1). HUVECs were seeded on the bottom of gelatin-coated wells at high density to provide a confluent monolayer at 48 hours.
Then, 50 000 HUVECs/ml were embedded in fibrinogen solution prior to polymerization. The fibrin matrix was covered with culture medium containing the molecule to be tested, while culture medium without any of these molecules served as controls. Cell behavior was observed periodically by phase contrast microscopy.

[1] = tested on: vitelline membrane of chick embryos; experiment: Embryonic vascularization test (EVT) ex ovo; format: in vivo; conditions: for approximate IC50, neovascularization (regardless of the scoring system): per methylcellulose disc
Source text: FIG. 2: A and B show an anti-angiogenic response to bpV(phen), orthovanadate (Van) and protamine (Prot) using a vascularization test on the vitelline membrane of chick embryos. Each point represents a minimum of 15 embryos (15 to 28).
The normal development of a chick embryo involves the formation of an external vascular system which is located in the vitelline membrane and which carries nutrients from the vitellus (yolk of the egg) to the developing embryo. When placed onto the vitelline membrane, anti-angiogenic substances can inhibit blood vessel development in the vitelline membrane. To facilitate access to the vitelline membrane, chick embryos were transferred to a sterile culture box (Petri dish) and placed in a humidity- and temperature-controlled incubator. Embryos could then develop in this ex ovo condition for several days.
An aliquot of the tested compound was mixed with a methylcellulose solution and allowed to air-dry into thin discs. Methylcellulose forms an inert matrix from which the tested compound can diffuse slowly. Methylcellulose discs containing the tested compound were placed on the external border of the vascular perimeter of the vitelline membrane where the angiogenic process was still active.
The effects of the discs containing the tested compound on proximal vascular development were, in all cases, compared with those of discs containing control buffer. The discs were placed on the embryos' vitelline membrane on Day 0 or Day 1 of the ex ovo growth process; at this point, only beginnings of the main blood vessels are invading the vitellus. The embryos were then put in culture conditions until vascularization was assessed (approximately 24 h). Control buffer- and compound-containing discs were in all cases added simultaneously on the vitelline membrane of the same embryo. Both discs were arranged in a symmetrical fashion with respect to the cephalo-caudal axis of the embryo in order to minimize inter-individual variations when comparing the tested compounds with controls.
[…] After one day in culture, the level of vascularization in the area covered by the discs was graded by a pair of scientists in the usual blind fashion. To facilitate the location of the discs, black O-rings were placed around them just after their placement on the vitelline membrane. The evaluation scale for the EVTs was based on two different scoring systems.
Blood vessel formation was assessed in a blind fashion. The areas of the vitelline membranes that lay beneath the methylcellulose discs were scored for the degree of vascularization, using two scoring systems (“N/+” or “1-2-3”). The following selection criteria were used:
A score of “N” for “Normal” was attributed when all the following conditions were met:
Blood vessels in the evaluated area grew along their path with no abnormal deviation. Collateral branching density was normal and the growth path of the lateral branches was also normal.
A score of “+” was attributed when at least one of the following conditions was met:
1-2-3 Grading Scale System:
A score of 3 was attributed when the following conditions were met:
A score of 2 was attributed when at least one of the following conditions was met:
A score of 1 was attributed when at least one of the following conditions was met:
A score of 3 meant that blood vessel development was normal whereas a score of 1 indicated the greatest degree of angiostatic activity.

[2] = tested on: Human umbilical vein endothelial cells (HUVECs); conditions: read-out: approximate IC50, endothelial cell proliferation; 96 hours in culture
Procedure: Each experiment was performed in triplicate. The culture medium was changed daily.

[3] = 10 mg/kg/i.p. b.i.d. for 14 days, ballooned left carotid
[4] = treated vs non-treated, 10 mg/kg/i.p. b.i.d. 14 days
[5] = anti-angiogenic effect on stellate structures

## Insulin: insulin administered to rats to induce an increase of ET concentration
ETs (ET-1, ET-2, ET-3)
  Plasma endothelins: 253.10 pg/mL

## [K+].[O]=[V-]12([O][O]1)[O][O]2.c1ccc(-c2ccccn2)nc1 [bpV(bipy), potassium bisperoxo(2,2′-bipyridyl) oxovanadate]
Left carotid artery; [3]
  I (intima): 0.112 mm^2
  I/M: 1.086
  L (lumina): 0.112 mm^2
  M (media): 0.104
  NIP (neointimal proliferation): 0.045 mm
Left carotid artery; [4]
  decrease in NIP: 32%
  decrease in the I/M ratio: 32%
  increase in the opening of the L: 28%
  reduction in the thickness of the I: 21%

## [O]=[V]([O-])([O-])[O-] [orthovanadate]
Rat aorta rings; 3.5 μM
  cell migration from aortic rings: no effect
Rat aorta rings; 25 μM
  cell migration from aortic rings: partial inhibition
HUVECs; 10 μM
  structures observed by phase contrast microscopy: cords were still apparent
HUVECs; 25 μM
  Stell. struct.: †
  cords: †
  structures observed by phase contrast microscopy: dead cells were sparsely distributed
  tubes: †
HUVECs; [5]
  times less potent than bpV(phen): ≥ 5 times
  times less potent than bpV(pic): at least 3 times
[1]; 0.001 μg, Assay 3
  Anti-angio.activity 1 to 3 (1: no angiogenesis; 3: normal angiogenesis): 2.8
  Anti-angio.activity % (proportion of embryos showing an anti-angiogenic response): 7%
[1]; 0.001 μg, Assay 5
  Anti-angio.activity 1 to 3 (1: no angiogenesis; 3: normal angiogenesis): 2.8
  Anti-angio.activity % (proportion of embryos showing an anti-angiogenic response): 7%
[1]; 0.01 μg, Assay 3
  Anti-angio.activity 1 to 3 (1: no angiogenesis; 3: normal angiogenesis): 2.4
  Anti-angio.activity % (proportion of embryos showing an anti-angiogenic response): 24%
[1]; 0.01 μg, Assay 5
  Anti-angio.activity 1 to 3 (1: no angiogenesis; 3: normal angiogenesis): 2.4
  Anti-angio.activity % (proportion of embryos showing an anti-angiogenic response): 24%
[1]; 0.1 μg, Assay 3
  Anti-angio.activity 1 to 3 (1: no angiogenesis; 3: normal angiogenesis): 2.4
  Anti-angio.activity % (proportion of embryos showing an anti-angiogenic response): 28%
[1]; 0.1 μg, Assay 5
  Anti-angio.activity 1 to 3 (1: no angiogenesis; 3: normal angiogenesis): 2.4
  Anti-angio.activity % (proportion of embryos showing an anti-angiogenic response): 28%
[1]; 1 μg, Assay 3
  Anti-angio.activity 1 to 3 (1: no angiogenesis; 3: normal angiogenesis): 2.0
  Anti-angio.activity % (proportion of embryos showing an anti-angiogenic response): 70%
[1]; 1 μg, Assay 4
  Anti-angio.activity 1 to 3 (1: no angiogenesis; 3: normal angiogenesis): 1.7
  Anti-angio.activity % (proportion of embryos showing an anti-angiogenic response): 57%
[1]; 1 μg, Assay 5
  Anti-angio.activity 1 to 3 (1: no angiogenesis; 3: normal angiogenesis): 1.9
  Anti-angio.activity % (proportion of embryos showing an anti-angiogenic response): 64%
[1]
  approximate IC50, neovascularization (regardless of the scoring system): ~0.6 µg

## O=C(O)c1ccccn1.OO.OO.[K+].[K+].[O]=[V] [bpV(pic), potassium bisperoxo(pyridine-2-carboxylato)oxovanadate]
Rat aorta rings; 10-25 μM
  cell migration from aortic rings: inhibition was seen
HUVECs; 1, 2 and 3.5 μM
  structures observed by phase contrast microscopy: cords and tubes were observed
[2]
  IC50: ~3.5 µM

## Protamine
[1]; 5 μg, Assay 1
  Anti-angio.activity 1 to 3 (1: no angiogenesis; 3: normal angiogenesis): 2.3
  Anti-angio.activity % (proportion of embryos showing an anti-angiogenic response): 23%
[1]; 5 μg, Assay 4
  Anti-angio.activity 1 to 3 (1: no angiogenesis; 3: normal angiogenesis): 2.3
  Anti-angio.activity % (proportion of embryos showing an anti-angiogenic response): 9%
[1]; 5 μg, Assay 5
  Anti-angio.activity 1 to 3 (1: no angiogenesis; 3: normal angiogenesis): 2.3
  Anti-angio.activity % (proportion of embryos showing an anti-angiogenic response): 16%
[1]; 10 μg, Assay 4
  Anti-angio.activity 1 to 3 (1: no angiogenesis; 3: normal angiogenesis): 2.1
  Anti-angio.activity % (proportion of embryos showing an anti-angiogenic response): 54%
[1]; 10 μg, Assay 5
  Anti-angio.activity 1 to 3 (1: no angiogenesis; 3: normal angiogenesis): 2.1
  Anti-angio.activity % (proportion of embryos showing an anti-angiogenic response): 54%
[1]; 20 μg, Assay 1
  Anti-angio.activity 1 to 3 (1: no angiogenesis; 3: normal angiogenesis): 2.0
  Anti-angio.activity % (proportion of embryos showing an anti-angiogenic response): 46%
[1]; 20 μg, Assay 2
  Anti-angio.activity 1 to 3 (1: no angiogenesis; 3: normal angiogenesis): 1.5
  Anti-angio.activity % (proportion of embryos showing an anti-angiogenic response): 80%
[1]; 20 μg, Assay 3
  Anti-angio.activity 1 to 3 (1: no angiogenesis; 3: normal angiogenesis): 1.5
  Anti-angio.activity % (proportion of embryos showing an anti-angiogenic response): 79%
[1]; 20 μg, Assay 4
  Anti-angio.activity 1 to 3 (1: no angiogenesis; 3: normal angiogenesis): 1.8
  Anti-angio.activity % (proportion of embryos showing an anti-angiogenic response): 80%
[1]; 20 μg, Assay 5
  Anti-angio.activity 1 to 3 (1: no angiogenesis; 3: normal angiogenesis): 1.7
  Anti-angio.activity % (proportion of embryos showing an anti-angiogenic response): 71%
[1]; 30 μg, Assay 4
  Anti-angio.activity 1 to 3 (1: no angiogenesis; 3: normal angiogenesis): 1.8
  Anti-angio.activity % (proportion of embryos showing an anti-angiogenic response): 67%
[1]; 30 μg, Assay 5
  Anti-angio.activity 1 to 3 (1: no angiogenesis; 3: normal angiogenesis): 1.8
  Anti-angio.activity % (proportion of embryos showing an anti-angiogenic response): 67%
[1]
  approximate IC50, neovascularization (regardless of the scoring system): ~11 µg
